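How tested: cells in 96-well plates exposed to compound for 48 hours at five concentrations. Abbreviation: GI50, concentration required for 50% inhibition of growth.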 The source made the active and inactive calls. No stated cut-off is given here; in the data, active = GI50 up to about 1.1 µM and inactive = higher.
What was measured:
Test in all cases: inhibition of tumour cell growth, NCI panel, 48 h
[1] = test system: 786-0
[2] = test system: A498
[3] = test system: A549
[4] = test system: ACHN
[5] = test system: CAKI-1
[6] = test system: CCRF-CEM
[7] = test system: COLO 205
[8] = test system: DLD-1
[9] = test system: DMS-273
[10] = test system: EKVX
[11] = test system: HCT-15
[12] = test system: HL-60
[13] = test system: HOP-18
[14] = test system: HOP-92
[15] = test system: HT-29
[16] = test system: IGROV-1
[17] = test system: K562
[18] = test system: KM-20L2
[19] = test system: KM12
[20] = test system: LOX IMVI
[21] = test system: LXFL 529
[22] = test system: M14
[23] = test system: M19-MEL
[24] = test system: MOLT-4
[25] = test system: Malme-3M
[26] = test system: NCI-H226
[27] = test system: NCI-H23
[28] = test system: NCI-H460
[29] = test system: NCI-H522
[30] = test system: OVCAR-3
[31] = test system: OVCAR-4
[32] = test system: OVCAR-5
[33] = test system: OVCAR-8
[34] = test system: RPMI-8226
[35] = test system: RXF 393
[36] = test system: RXF 631
[37] = test system: SF-268
[38] = test system: SF-295
[39] = test system: SF-539
[40] = test system: SK-MEL-28
[41] = test system: SK-MEL-2
[42] = test system: SK-MEL-5
[43] = test system: SK-OV-3
[44] = test system: SN12C
[45] = test system: SNB-19
[46] = test system: SNB-75
[47] = test system: SW-620
[48] = test system: TK-10
[49] = test system: U-251
[50] = test system: UACC-257
[51] = test system: UACC-62
[52] = test system: UO-31
[53] = test system: XF498
[54] = test system: DMS-114
[55] = test system: HCC 2998
[56] = test system: HCT-116
[57] = test system: HOP-62
[58] = test system: SNB-78
[59] = test system: SR

O=C(O)CN(c1ccccc1)S(=O)(=O)c1ccccc1[N+](=O)[O-]
GI50 [1]: > 100 µM (inactive)
GI50 [2]: > 100 µM (inactive)
GI50 [3]: > 100 µM (inactive)
GI50 [4]: > 100 µM (inactive)
GI50 [5]: > 100 µM (inactive)
GI50 [6]: > 100 µM (inactive)
GI50 [7]: > 100 µM (inactive)
GI50 [8]: > 100 µM (inactive)
GI50 [9]: > 100 µM (inactive)
GI50 [10]: > 100 µM (inactive)
GI50 [11]: > 100 µM
GI50 [12]: > 100 µM (inactive)
GI50 [13]: > 100 µM (inactive)
GI50 [14]: > 100 µM (inactive)
GI50 [15]: > 100 µM (inactive)
GI50 [16]: > 100 µM (inactive)
GI50 [17]: > 10 µM (inactive)
GI50 [18]: > 100 µM (inactive)
GI50 [19]: > 100 µM (inactive)
GI50 [20]: > 100 µM (inactive)
GI50 [21]: > 100 µM (inactive)
GI50 [22]: > 100 µM (inactive)
GI50 [23]: > 100 µM (inactive)
GI50 [24]: > 100 µM (inactive)
GI50 [25]: > 100 µM (inactive)
GI50 [26]: > 100 µM (inactive)
GI50 [27]: > 100 µM (inactive)
GI50 [28]: > 100 µM (inactive)
GI50 [29]: > 100 µM (inactive)
GI50 [30]: > 100 µM (inactive)
GI50 [31]: > 100 µM (inactive)
GI50 [32]: > 100 µM (inactive)
GI50 [33]: > 100 µM (inactive)
GI50 [34]: > 100 µM (inactive)
GI50 [35]: > 100 µM (inactive)
GI50 [36]: > 100 µM (inactive)
GI50 [37]: > 100 µM (inactive)
GI50 [38]: > 100 µM (inactive)
GI50 [39]: > 100 µM (inactive)
GI50 [40]: > 100 µM (inactive)
GI50 [41]: > 100 µM (inactive)
GI50 [42]: > 100 µM (inactive)
GI50 [43]: > 100 µM (inactive)
GI50 [44]: > 100 µM (inactive)
GI50 [45]: > 100 µM (inactive)
GI50 [46]: > 100 µM (inactive)
GI50 [47]: > 100 µM (inactive)
GI50 [48]: > 100 µM (inactive)
GI50 [49]: > 100 µM (inactive)
GI50 [50]: > 100 µM (inactive)
GI50 [51]: > 100 µM (inactive)
GI50 [52]: > 100 µM (inactive)
GI50 [53]: > 100 µM (inactive)

Cc1ccc2c(c1-c1ccccc1)C(=O)OC2
GI50 [1]: > 100 µM (inactive)
GI50 [2]: > 100 µM (inactive)
GI50 [3]: > 100 µM (inactive)
GI50 [4]: > 100 µM (inactive)
GI50 [5]: > 100 µM (inactive)
GI50 [6]: > 100 µM (inactive)
GI50 [7]: > 100 µM (inactive)
GI50 [8]: > 100 µM (inactive)
GI50 [54]: 99.3 µM (inactive)
GI50 [9]: > 100 µM (inactive)
GI50 [10]: 17.1 µM (inactive)
GI50 [55]: > 100 µM (inactive)
GI50 [56]: > 100 µM (inactive)
GI50 [11]: > 100 µM
GI50 [12]: > 100 µM (inactive)
GI50 [13]: > 100 µM (inactive)
GI50 [57]: > 100 µM (inactive)
GI50 [15]: > 100 µM (inactive)
GI50 [16]: > 100 µM (inactive)
GI50 [17]: 56.1 µM (inactive)
GI50 [18]: 20.4 µM (inactive)
GI50 [19]: > 100 µM (inactive)
GI50 [21]: > 100 µM (inactive)
GI50 [22]: > 100 µM (inactive)
GI50 [23]: > 100 µM (inactive)
GI50 [24]: 94.4 µM (inactive)
GI50 [25]: > 100 µM (inactive)
GI50 [26]: > 100 µM (inactive)
GI50 [27]: > 100 µM (inactive)
GI50 [29]: > 100 µM (inactive)
GI50 [30]: 76.7 µM (inactive)
GI50 [31]: > 100 µM (inactive)
GI50 [33]: > 100 µM (inactive)
GI50 [34]: > 100 µM (inactive)
GI50 [35]: > 100 µM (inactive)
GI50 [36]: > 100 µM (inactive)
GI50 [37]: > 100 µM (inactive)
GI50 [40]: > 100 µM (inactive)
GI50 [41]: > 100 µM (inactive)
GI50 [42]: > 100 µM (inactive)
GI50 [43]: > 100 µM (inactive)
GI50 [44]: > 100 µM (inactive)
GI50 [45]: > 100 µM (inactive)
GI50 [46]: > 100 µM (inactive)
GI50 [58]: 37 µM (inactive)
GI50 [59]: 90.6 µM (inactive)
GI50 [47]: > 100 µM (inactive)
GI50 [48]: > 100 µM (inactive)
GI50 [49]: > 100 µM (inactive)
GI50 [50]: > 100 µM (inactive)
GI50 [51]: 28.7 µM (inactive)
GI50 [52]: 75 µM (inactive)

O=C1c2ccccc2-c2cccc3ccc(Cc4ccc5ccccc5c4)c1c23
GI50 [1]: 76.6 µM (inactive)
GI50 [3]: > 100 µM (inactive)
GI50 [4]: > 100 µM (inactive)
GI50 [6]: > 100 µM (inactive)
GI50 [7]: > 100 µM (inactive)
GI50 [8]: > 100 µM (inactive)
GI50 [9]: 88.3 µM (inactive)
GI50 [10]: > 100 µM (inactive)
GI50 [55]: > 100 µM (inactive)
GI50 [56]: > 100 µM (inactive)
GI50 [11]: > 100 µM
GI50 [12]: > 100 µM (inactive)
GI50 [57]: > 100 µM (inactive)
GI50 [14]: 49.4 µM (inactive)
GI50 [15]: > 100 µM (inactive)
GI50 [16]: > 100 µM (inactive)
GI50 [17]: 29.4 µM (inactive)
GI50 [18]: > 100 µM (inactive)
GI50 [19]: > 100 µM (inactive)
GI50 [22]: > 100 µM (inactive)
GI50 [23]: > 100 µM (inactive)
GI50 [24]: > 100 µM (inactive)
GI50 [25]: > 100 µM (inactive)
GI50 [27]: > 100 µM (inactive)
GI50 [28]: > 100 µM (inactive)
GI50 [29]: 15.6 µM (inactive)
GI50 [30]: > 100 µM (inactive)
GI50 [31]: > 100 µM (inactive)
GI50 [32]: > 100 µM (inactive)
GI50 [33]: > 100 µM (inactive)
GI50 [34]: > 100 µM (inactive)
GI50 [35]: 48.2 µM (inactive)
GI50 [36]: > 100 µM (inactive)
GI50 [37]: > 100 µM (inactive)
GI50 [38]: > 100 µM (inactive)
GI50 [39]: > 100 µM (inactive)
GI50 [40]: > 100 µM (inactive)
GI50 [41]: > 100 µM (inactive)
GI50 [42]: > 100 µM (inactive)
GI50 [44]: > 100 µM (inactive)
GI50 [45]: > 100 µM (inactive)
GI50 [46]: 26.4 µM (inactive)
GI50 [58]: > 100 µM (inactive)
GI50 [47]: > 100 µM (inactive)
GI50 [48]: > 100 µM (inactive)
GI50 [49]: 98.2 µM (inactive)
GI50 [50]: > 100 µM (inactive)
GI50 [51]: > 100 µM (inactive)
GI50 [52]: > 100 µM (inactive)
GI50 [53]: 30.3 µM (inactive)

— ChEMBL document CHEMBL1201862, “PubChem BioAssay data set” (2004)
